Assay: Absorption, distribution, metabolism and excretion of oral [14C]vorasidenib in humans; metabolite profiling in plasma, urine, feces
Conditions: human, in vivo
Method: Metabolite profiling and identification of vorasidenib (AG-881) was performed in plasma, urine, and fecal samples collected from five healthy subjects after a single 50-mg (100 μCi) oral dose of [14C]AG-881 and concomitant intravenous microdose of [^13C3 ^15N3]AG-881.
Plasma samples collected at selected time points from 0 through 336 hour postdose were pooled across subjects to generate 0- to 72 and 96-336-hour area under the concentration-time curve (AUC)-representative samples. Urine and feces samples were pooled by subject to generate individual urine and fecal pools. Plasma, urine, and feces samples were extracted, as appropriate, the extracts were profiled using high performance liquid chromatography (HPLC), and metabolites were identified by liquid chromatography-mass spectrometry (LC-MS and/or LC-MS/MS) analysis and by comparison of retention time with reference standards, when available.
Due to low radioactivity in samples, plasma metabolite profiling was performed by using accelerator mass spectrometry (AMS). In plasma, AG-881 was accounted for 66.24 and 29.47% of the total radioactivity in the pooled AUC0-72 h and […] plasma, respectively. The most abundant radioactive peak (P7; M458) represented 0.10 and 43.92% of total radioactivity for pooled AUC0-72 and AUC96-336 h plasma, respectively. All other radioactive peaks accounted for less than 6% of the total plasma radioactivity and were not identified.

SMILES | radioactivity recovered in feces, % of the dose | unchanged parent detected in urine | radioactivity recovered in urine, % of the dose
C[C@@H](Nc1nc(N[C@H](C)C(F)(F)F)nc(-c2cccc(Cl)n2)n1)C(F)(F)F [AG-881, 6-(6-chloropyridin-2-yl)-N2, N4-bis((R)-1,1,1-trifluoropropan-2-yl)-1,3,5-triazine-2,4-diamine, reference compound] | 55.5 % of the dose | no AG-881 was detected | 
CS(=O)(=O)c1cccc(-c2nc(N)nc(N)n2)n1 [Compound M266] |  |  | 2.54 % of the dose
C[C@@H](Nc1nc(N[C@H](C)C(F)(F)F)nc(-c2cccc(S(=O)(=O)O)n2)n1)C(F)(F)F [Compound M460-1] | 2-5 % of the dose |  | 
C[C@@H](Nc1nc(N[C@H](C)C(F)(F)F)nc(-c2cccc(SCC(N)C(=O)O)n2)n1)C(F)(F)F (some centres unmarked) [Compound M499] | 2-5 % of the dose |  | 
